# “Also recorded” adds a separate entry of the source.
# Assays:
# [1] = tested on: mice, bleomycin-induced pre-established dermal fibrosis; experiment: Modified model of bleomycin-induced dermal fibrosis (regression of established fibrosis); assay type: in vivo, mouse
# From the text: To evaluate, whether inhibition of JNK might also be effective for the treatment of established fibrosis, a modified model of bleomycin-induced dermal fibrosis was used. […] Thus, Compound JNKi-1 decreased the level of dermal thickness under the pre-treatment level (127±4% vs 175±8% compared to NaCl injections for 6 weeks, p=0.008 and p=0.021) (FIG. 7A).
# [2] = tested on: phosphorylation of the JNK target cJun in dermal SSc-fibroblasts; experiment: Western Blot analysis of c-Jun phosphorylation in TGF-β/PDGF-stimulated cultured dermal fibroblasts; assay type: cell-based, human; conditions: pre-incubation with compound
# Protocol: To analyze whether the JNK pathway was activated by TGF-β and PDGF, Western Blot analysis for c-Jun in cultured dermal fibroblasts was performed.
# After rinsing twice with PBS, the dermal fibroblasts were trypsinized and lysed with Laemmli Buffer. Five μg of protein from each sample were separated by 10% SDS-PAGE and electrotransferred onto polyvinylidene difluoride (PVDF) membranes according to standard protocols (Distler J H, Jungel A, Kowal-Bielecka O, Michel B A, Gay R E, Sprott H, et al. Expression of interleukin-21 receptor in epidermis from patients with systemic sclerosis. Arthritis Rheum. 2005; 52(3):856-64). Immunoblots were incubated with monoclonal antibodies against c-Jun and phospho-c-Jun (Santa Cruz, Heidelberg, Germany) at a dilution of 1:200 overnight at 4° C. After incubation with horseradish peroxidase-conjugated rabbit anti-mouse antibodies (Dako, Hamburg, Germany) for 1 hour at a dilution of 1:2000, signals were detected with ECL Western Blotting Detection Reagents (Amersham Bioscience, Freiburg, Germany). For confirmation of equal loading of proteins, the amount of β-actin was determined using mouse anti-human β-actin antibodies (Sigma-Aldrich, Munich, Germany; dilution 1:10000).
# [3] = tested on: fibroblasts from SSc patients; experiment: MTT assay, SSc fibroblast viability; assay type: cell-based, human; conditions: 1 μM, 24-hr incubation
# Protocol: Dermal fibroblasts from two SSc patients were treated for 24 hours (hr) with Compound JNKi-1 at concentrations from 0.1 μM to 10 μM (0.5% DMSO/99.5% cell culture media). To study the effect of Compound JNKi-1 on growth factor-induced collagen expression, recombinant transforming growth factor beta (TGF-β) (final concentration of 10 ng/mL) or platelet-derived growth factor-BB (PDGF-BB) (final concentration of 40 ng/mL) were added to cells 2 hr after the addition of JNK-inhibitor Compound JNKi-1 for 24 hr. The expression of collagen proteins was analyzed by SirCol assay. The messenger ribonucleic acid (mRNA) levels of extracellular proteins were measured by real-time polymerase chain reaction (PCR). The β-actin mRNA was used as internal control for the measurement of Collagen 1a1 mRNA using PCR. Fibroblast proliferation assay was performed in the presence or absence of 1 μM Compound JNKi-1 for 24 hr with the (3-(4,5-Dimethylthiazol-2-yl)-2,5-diphenyltetrazolium bromide) (MTT) assay.
# The isolation of fibroblasts from human SSc patients and culture conditions used in this study have been previously described (Akhmetshina A, Dees C, Pileckyte M, Maurer B, Axmann R, Jüngel A, et al., Dual inhibition of c-abl and PDGF receptor signaling by dasatinib and nilotinib for the treatment of dermal fibrosis, FASEB J. 2008; 22(7):2214-22). […] Data are expressed as mean±standard error of the mean (SEM).
# [4] = 150 mg/kg for the last 3 weeks of 6 weeks bleomycin
compound,measurement,setting,value
"O[C@H]1CC[C@H](Nc2ncc3nc(Nc4c(F)cc(F)cc4F)n([C@H]4CCOC4)c3n2)CC1 [JNKi-1, 4-((9-((3S)-tetrahydro-3-furanyl)-8-((2,4,6-trifluorophenyl)amino)-9H-purin-2-yl)amino)-trans-cyclohexanol]","dermal thickness, normalized to NaCl injections for 6 weeks = 100%",[1]; 150 mg/kg BID for the last 3 weeks of 6 weeks bleomycin,127±4%
same,accumulation of collagen (hydroxyproline assay),[1]; [4],significantly reduced
same,"number of myofibroblasts, normalized to NaCl injections for 6 weeks = 100%",[1]; [4],171±31%
same,regression of established fibrosis / dermal thickening (in words),[1]; treatment for the last 3 weeks of continuous bleomycin challenge,induced regression of dermal thickening; also recorded: induced regression of fibrosis
same,stimulatory effect of PDGF on c-Jun phosphorylation,[2],completely prevented
same,stimulatory effects of TGF-β and PDGF on the phosphorylation of c-Jun,[2],reduced the stimulatory effects
same,cytotoxic effect / cell viability (MTT),[3],does not exert its inhibitory effects indirectly by reducing cell viability; also recorded: no cytotoxic effect
